Target: T1, USP28 (USP28-5(1-1077)-TEV-6*His; LifeSensors) (Homo sapiens, UniProt Q96RU2)
T1 construct: construct USP28 (USP28-5(1-1077)-TEV-6*His; LifeSensors); TEV cleavage site (C); 6xHis (C); purchased LifeSensors
T1 sequence (Q96RU2 1-1077): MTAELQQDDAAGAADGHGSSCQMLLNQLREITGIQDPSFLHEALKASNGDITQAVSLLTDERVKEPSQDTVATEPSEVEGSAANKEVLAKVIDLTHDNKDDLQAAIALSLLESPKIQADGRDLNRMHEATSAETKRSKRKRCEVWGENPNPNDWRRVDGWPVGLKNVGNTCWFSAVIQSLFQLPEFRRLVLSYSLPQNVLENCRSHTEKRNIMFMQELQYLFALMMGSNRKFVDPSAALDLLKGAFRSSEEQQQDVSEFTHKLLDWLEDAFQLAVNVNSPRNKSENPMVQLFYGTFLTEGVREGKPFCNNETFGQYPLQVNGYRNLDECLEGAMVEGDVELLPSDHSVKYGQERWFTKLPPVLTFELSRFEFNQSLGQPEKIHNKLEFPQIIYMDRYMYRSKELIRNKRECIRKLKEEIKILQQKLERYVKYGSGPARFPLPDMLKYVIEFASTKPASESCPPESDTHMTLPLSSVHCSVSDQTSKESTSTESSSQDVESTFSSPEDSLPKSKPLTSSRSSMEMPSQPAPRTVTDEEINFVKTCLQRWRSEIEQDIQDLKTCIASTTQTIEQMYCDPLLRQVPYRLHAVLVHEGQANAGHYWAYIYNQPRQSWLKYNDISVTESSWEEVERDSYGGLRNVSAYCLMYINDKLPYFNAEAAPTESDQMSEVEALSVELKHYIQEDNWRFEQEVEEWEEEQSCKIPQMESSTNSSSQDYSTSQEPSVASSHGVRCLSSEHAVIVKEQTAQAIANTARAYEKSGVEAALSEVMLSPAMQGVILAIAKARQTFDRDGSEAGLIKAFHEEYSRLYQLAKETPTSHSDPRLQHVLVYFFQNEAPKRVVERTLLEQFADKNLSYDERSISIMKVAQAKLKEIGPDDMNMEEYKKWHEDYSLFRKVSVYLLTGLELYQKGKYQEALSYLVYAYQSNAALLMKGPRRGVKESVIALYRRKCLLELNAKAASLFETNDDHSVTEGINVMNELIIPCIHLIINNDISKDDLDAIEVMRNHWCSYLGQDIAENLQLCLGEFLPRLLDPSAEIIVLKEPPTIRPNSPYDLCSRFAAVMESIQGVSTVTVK
Test: Ubiquitin-Rhodamine 110 Assay for USP28 Activity, Example A-1(b)
Assay type: biochemical
Conditions: Ubiquitin-Rhodamine 110 assay
Procedure: Example A-1(b): Biochemical Assay: Ubiquitin-Rhodamine 110 Assay for USP28 Activity
Each assay was performed in a final volume of 20 μL in assay buffer containing 20 mM Tris-HCl (pH 8.0, (1M Tris-HCl, pH 8.0 solution; Corning 46-031-CM)), 2 mM CaCl2) (1M Calcium Chloride solution; Sigma #21114) 2 mM BME (2-Mercaptoethanol; Sigma 63689-25ML-F), 0.01% Prionex ([…] filtered, Sigma #G-0411), and 0.01% Triton X-100. Stock compound solutions were stored at −20° C. as 10 mM in DMSO. Up to 1 month prior to the assay, 2 mM test compounds were pre-dispensed into assay plates (Black, low volume; Corning #3820) and frozen at −20° C. Prestamped assay plates were allowed to come to room temperature on the day of the assay. For the screen, 100 nL of 2 mM was pre-dispensed for a final screening concentration of 10 μM (DMSO(fc)=0.5%). […] Plates were incubated stacked for 90 minutes at room temperature before fluorescence was read on the Envision (Excitation at 485 nm and Emission at 535 nm; Perkin Elmer) or on the PheraSTAR (Excitation at 485 nm and Emission at 535 nm; BMG Labtech).
For follow-up studies, each assay was performed in a final volume of 15 μL in assay buffer containing 20 mM Tris-HCl (pH 8.0, (1M Tris-HCl, pH 8.0 solution; Corning 46-031-CM)), 3 mM BME (2-Mercaptoethanol; Sigma 63689-25ML-F), 0.03% BGG (0.22 μM filtered, Sigma, G7516-25G), and 0.01% Triton X-100 (Sigma, T9284-10L). Nanoliter quantities of either an 8-point or 10-point, 3-fold serial dilution in DMSO was pre-dispensed into assay plates (Perkin Elmer, ProxiPlate-384 F Plus, #) for a final test concentration of either 25 μM to 11 nM or 25 μM to 1.3 nM, respectively. Enzyme USP28, construct USP28 (USP28-5(1-1077)-TEV-6*His; LifeSensors) concentration and incubation times were optimized for the maximal signal-to-background while maintaining initial velocity conditions at a fixed substrate concentration. The final concentration of the enzyme in the assay was 75 pM. Final substrate (Ub-Rh110; Ubiquitin-Rhodamine 110, R&D Systems #U-555) concentration was 25 nM with [Ub-Rh110]<<Km. 5 μL of 2× enzyme was added to assay plates (pre-stamped with compound) preincubated with USP28 for 30 minutes and then 5 μL of 2×Ub-Rh110 was added to assay plates. Plates were incubated stacked for 20 minutes at room temperature before 5 μL of stop solution was added (final concentration of 10 mM citric acid (Sigma, 251275-500G)). Fluorescence was read on the Envision (Excitation at 485 nm and Emission at 535 nm; Perkin Elmer) or on the PheraSTAR (Excitation at 485 nm and Emission at 535 nm; BMG Labtech).
For assay formats Example A-1(a), A-1(b), and A-2, data were reported as percent inhibition compared with control wells based on the following equation: % inh=1−((FLU−AveLow)/(AveHigh−AveLow)) where FLU=measured Fluorescence, AveLow=average Fluorescence of no enzyme control (n=16), and AveHigh=average Fluorescence of DMSO control (n=16). IC50 values were determined by curve fitting of the standard 4 parameter logistic fitting algorithm included in the Activity Base software package: IDBS XE Designer Model 205. Data is fitted using the Levenburg Marquardt algorithm.

| Compound | USP28 A-1(b) IC50 range (Example A-1(b)) | USP28 A-1(b) IC50 range (format Example A-1(b)) |
| --- | --- | --- |
| Cc1cnc2c(N)c(C(=O)N[C@@H]3CCc4cc(N5CCNCC5)ccc4C3)sc2n1 (single isomer, unassigned) [Example 11-20] | + (>2 μM) | – |
| Cc1ccc2c(N)c(C(=O)N[C@H]3CCc4cc(N5CCNCC5)ccc4C3)sc2n1 (single isomer, unassigned) [Example 11-21] | ++ (0.2-2 μM) | – |
| Cc1ccc2c(N)c(C(=O)N[C@@H]3CCc4cc(N5CCNCC5)ccc4C3)sc2n1 (single isomer, unassigned) [Example 11-22] | ++ (0.2-2 μM) | – |
| CN[C@H]1CCN(c2ccc3c(c2)CC[C@H](NC(=O)c2sc4nc(C)cnc4c2N)C3)C1 (single isomer, unassigned) [Example 11-25] | ++ (0.2-2 μM) | – |
| CN[C@H]1CCN(c2ccc3c(c2)CC[C@@H](NC(=O)c2sc4nc(C)cnc4c2N)C3)C1 (single isomer, unassigned) [Example 11-26] | + (>2 μM) | – |
| CN[C@@H]1CCN(c2ccc3c(c2)CC[C@H](NC(=O)c2sc4nc(C)cnc4c2N)C3)C1 (single isomer, unassigned) [Example 11-27] | ++ (0.2-2 μM) | – |
| CN[C@@H]1CCN(c2ccc3c(c2)CC[C@@H](NC(=O)c2sc4nc(C)cnc4c2N)C3)C1 (single isomer, unassigned) [Example 11-28] | + (>2 μM) | – |
| Cc1cnc2c(N)c(C(=O)N[C@H]3CCc4cc(N5C[C@@H]6C[C@H]5CN6)ccc4C3)sc2n1 (single isomer, unassigned) [Example 11-29] | ++ (0.2-2 μM) | – |
| Cc1cnc2c(N)c(C(=O)N[C@@H]3CCc4cc(N5C[C@@H]6C[C@H]5CN6)ccc4C3)sc2n1 (single isomer, unassigned) [Example 11-30] | – | ++ (0.2-2 μM) |
| Cc1cnc2c(N)c(C(=O)N[C@H]3CCc4cc(N5C[C@H]6C[C@@H]5CN6)ccc4C3)sc2n1 (single isomer, unassigned) [Example 11-31] | – | ++ (0.2-2 μM) |
| Cc1cnc2c(N)c(C(=O)N[C@@H]3CCc4cc(N5C[C@H]6C[C@@H]5CN6)ccc4C3)sc2n1 (single isomer, unassigned) [Example 11-32] | – | ++ (0.2-2 μM) |
| Cc1nc2sc(C(=O)N[C@@H]3CCc4cc(N5CCNCC5)ccc4C3)c(N)c2s1 (single isomer, unassigned) [Example 11-34] | – | ++ (0.2-2 μM) |
| Cc1cnc2c(N)c(C(=O)N[C@@H]3CCc4cc(N5CCNCC5)cc(F)c4C3)sc2n1 (single isomer, unassigned) [Example 11-37] | – | + (>2 μM) |
| Cc1cnc2c(N)c(C(=O)N[C@H]3CCc4cc(N5CCNCC5)cc(F)c4C3)sc2n1 (single isomer, unassigned) [Example 11-38] | – | +++ (0.05-0.2 μM) |
| Cc1ccc2c(N)c(C(=O)N[C@H]3CCc4cc(N5CC6CNCC(C5)O6)cc(F)c4C3)sc2n1 (single isomer, unassigned) [Example 11-39] | – | ++ (0.2-2 μM) |
| Cc1ccc2c(N)c(C(=O)N[C@@H]3CCc4cc(N5CC6CNCC(C5)O6)cc(F)c4C3)sc2n1 (single isomer, unassigned) [Example 11-40] | – | ++++ (0.001-0.05 μM) |
| Cc1ccc2c(N)c(C(=O)N[C@H]3CCc4cc(N5CC6CNCC(C5)O6)ccc4C3)sc2n1 (single isomer, unassigned) [Example 449] | ++ (0.2-2 μM) | – |
| Cc1ccc2c(N)c(C(=O)N[C@H]3COc4cc(N5CCNC6(COC6)C5)ccc4C3)sc2n1 [Example 4-1, (R)—N-(7-(2-oxa-5,8-diazaspiro[3.5]nonan-8-yl)chroman-3-yl)-3-amino-6-methylthieno[2,3-b]pyridine-2-carboxamide] | ++ (0.2-2 μM) | – |
| Cc1ccc2c(N)c(C(=O)N[C@@H]3CCc4c(C#N)c(N5CCNCC5)cc(F)c4C3)sc2n1 [Example 14-9, (R)-3-amino-N-(5-cyano-8-fluoro-6-(piperazin-1-yl)-1,2,3,4-tetrahydronaphthalen-2-yl)-6-methylthieno[2,3-b]pyridine-2-carboxamide] | – | + (>2 μM) |
| Cc1ccc2c(N)c(C(=O)N[C@H]3CCc4c(C#N)c(N5CCNCC5)cc(F)c4C3)sc2n1 [Example 14-10, (S)-3-amino-N-(5-cyano-8-fluoro-6-(piperazin-1-yl)-1,2,3,4-tetrahydronaphthalen-2-yl)-6-methylthieno[2,3-b]pyridine-2-carboxamide] | – | +++ (0.05-0.2 μM) |
| Cc1cnc2c(N)c(C(=O)N[C@@H]3CCc4c(C#N)c(N5CCNCC5)cc(F)c4C3)sc2n1 [Example 14-11, (R)-7-amino-N-(5-cyano-8-fluoro-6-(piperazin-1-yl)-1,2,3,4-tetrahydronaphthalen-2-yl)-3-methylthieno[2,3-b]pyrazine-6-carboxamide] | – | ++ (0.2-2 μM) |
| Cc1ccc2c(N)c(C(=O)N[C@@H]3COc4cc(N5C[C@@H]6CNC[C@H]6C5)ccc4C3)sc2n1 [Example 42, 3-amino-((S)-7-((3aS,6aS)-hexahydropyrrolo[3,4-c]pyrrol-2(1H)-yl)chroman-3-yl)-6-methylthieno[2,3-b]pyridine-2-carboxamide] | ++ (0.2-2 μM) | – |
| Cc1cnc2c(N)c(C(=O)N[C@H]3CCc4cc(N5CCNCC(F)(F)C5)ccc4C3)sc2n1 [Example 454, (S)-7-amino-N-(6-(6,6-difluoro-1,4-diazepan-1-yl)-1,2,3,4-tetrahydronaphthalen-2-yl)-3-methylthieno[2,3-b]pyrazine-6-carboxamide] | +++ (0.05-0.2 μM) | – |
| O=C(N[C@H]1COc2cc(N3CCNCC3)ccc2C1)c1cnn2c(Br)cccc12 [Example 457, (R)-7-bromo-N-(7-(piperazin-1-yl)chroman-3-yl)pyrazolo[1,5-a]pyridine-3-carboxamide] | ++ (0.2-2 μM) | – |

From patent US11524966B1 (Valo Early Discovery, Inc., priority 2017, dated 2022)
